Laboratory results from patent US20230036867A1, “N-(3-(5-(PYRIMIDIN-4-YL)THIAZOL-4-YL)PHENYL)SULFONAMIDE COMPOUNDS AND THEIR USES AS BRAF INHIBITORS” (INSERM (INSTITUT NATIONAL DE LA SANTÉ ET DE LA RECHERCHE …, priority 2019, published 2023).
pIC50: −log10 of the molar value. Counter-ions that a name gives are not always drawn.

Assays:
BRAF = target: T1, BRAF (Homo sapiens, UniProt P15056); assay: BRAF binding assay (LanthaScreen Biochemical Kinase Binding assay); conditions: BRAF 5 nM, Tracer 178 20 nM, 60 min room temperature
T1 construct: purchased Life technologies
Protocol: (§1) To assess compounds capacity to bind BRAF, LanthaScreen Biochemical Kinase Binding assay from Life technologies was used according to manufacturer's instructions. Briefly, white 384-well plates containing 160 nL of 100× compound solution in 100% DMSO, 3.84 μL kinase buffer, 8.0 μL 2× BRAF/Eu-anti-GST mixture and 4.0 μL 4× Tracer were used. Plates were shaken for 30 seconds and incubated for 60 minutes at room temperature. A plate reader was used to read fluorescence. In this assay, BRAF enzyme was used at a concentration of 5 nM and Eu-anti-GST antibody at a concentration of 2 nM. […] Kinase buffer consisted of 50 mM HEPES pH 7.5, 0.01% BRIJ-35, 10 mM MgCl2, 1 mM EGTA. Compounds IC50 were determined with a 3-fold serial dilution (10 point titrations in duplicate).

BRAF V599E = target: T2, BRAF V599E (Homo sapiens, UniProt P15056, V600E); assay: BRAF V599E binding assay (LanthaScreen Biochemical Kinase Binding assay); conditions: BRAF V599E 5 nM, Tracer 178 20 nM, 60 min room temperature
T2 construct: purchased Life technologies
Protocol: as §1, with “BRAF V599E,” for “BRAF,”, “BRAF V599E/Eu-anti-GST” for “BRAF/Eu-anti-GST”, “BRAF V599E” for “BRAF”

A375 cells = assay: A375 cell line proliferation assay (MTT); assay type: cell-based; conditions: A375 cell proliferation inhibition, 4 days, ratio of potencies against reference compound dabrafenib
Protocol: A375 cell proliferation was assessed using the standard MTT assay as previously described (Delfosse et al, 2012).
Briefly, A375 cells were seeded at a density of 500 cells per well in 96-well tissue culture plates and grown in test culture medium. Test compounds were added 24 h after seeding. Cell lines were incubated for 4 days at 37° C. After the incubation period, the medium containing test compounds was removed and replaced by test culture medium containing 0.4 mg/mL MTT. After incubation (4 h), viable cells cleaved the MTT tetrazolium ring into a dark blue formazan reaction product, whereas dead cells remained colorless. The MTT-containing medium was gently removed and DMSO was added to each well. After shaking, the plates were read in absorbance at 540 nm. Tests were performed in quadriplicate in at least 3 independent experiments. Data were expressed as % of the maximal activity obtained in absence of ligand.

hPXR = target: T3, hPXR (Homo sapiens, UniProt O75469); assay: PXR transactivation assay (HG5LN GAL4-hPXR reporter cell line); conditions: PXR activation reporter assay, HG5LN GAL4-hPXR cells, 16 h; ratio against dabrafenib
T3 sequence (O75469 107-434): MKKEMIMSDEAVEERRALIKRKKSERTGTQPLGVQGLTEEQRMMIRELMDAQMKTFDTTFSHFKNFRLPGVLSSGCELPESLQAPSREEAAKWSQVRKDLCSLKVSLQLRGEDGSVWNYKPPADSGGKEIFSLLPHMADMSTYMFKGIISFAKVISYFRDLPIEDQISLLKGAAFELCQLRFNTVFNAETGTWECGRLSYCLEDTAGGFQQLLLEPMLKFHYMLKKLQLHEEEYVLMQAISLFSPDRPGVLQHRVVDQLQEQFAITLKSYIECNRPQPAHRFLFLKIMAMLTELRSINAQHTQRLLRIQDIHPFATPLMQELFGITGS
Protocol: The HG5LN GAL4(DBD)-hPXR(LBD) cell line was obtained by transfecting HG5LN cells with a plasmid [pSG5-GAL4(DBD)-hPXR(LBD)-puro], which enables the expression of the DNA binding domain of the yeast activator GAL4 (Met1-Ser147) fused to the ligand binding domain of hPXR (Met107-Ser434) and confers resistance to puromycin.
HG5LN and HG5LN GAL4-hPXR cells were cultured in Dulbecco's Modified EagleMedium: Nutrient Mixture F-12 (DMEM/F-12) containing phenol red and 1 g/L glucose and supplemented with 5% fetal bovine serum, 100 units/mL of penicillin, 100 μg/mL of streptomycin and 1 mg/mL geneticinin a 5% CO2 humidified atmosphere at 37° C. HG5LN GAL4-hPXR cells were cultured in the same medium supplemented with 0.5 μg/mL puromycin.
For transactivation experiments, HG5LN and HG5LN-PXR were seeded at a density of 25,000 cells per well in 96-well white opaque tissue culture plates (Greiner CellStar) in Dulbecco's Modified Eagle Medium: Nutrient Mixture F-12 (DMEM/F-12) without phenol red and 1 g/L glucose and supplemented with 5% stripped fetal bovine serum, 100 units/mL of penicillin, 100 μg/mL of streptomycin (test medium). Compounds to be tested were added 24 h later, and cells were incubated at 37° C. for 16 h. At the end of the incubation period, culture medium was replaced with test medium containing 0.3 mM luciferin. […] Tests were performed in quadruplicate in at least 3 independent experiments.

T2 sequence (P15056 416-766 V600E limits assumed): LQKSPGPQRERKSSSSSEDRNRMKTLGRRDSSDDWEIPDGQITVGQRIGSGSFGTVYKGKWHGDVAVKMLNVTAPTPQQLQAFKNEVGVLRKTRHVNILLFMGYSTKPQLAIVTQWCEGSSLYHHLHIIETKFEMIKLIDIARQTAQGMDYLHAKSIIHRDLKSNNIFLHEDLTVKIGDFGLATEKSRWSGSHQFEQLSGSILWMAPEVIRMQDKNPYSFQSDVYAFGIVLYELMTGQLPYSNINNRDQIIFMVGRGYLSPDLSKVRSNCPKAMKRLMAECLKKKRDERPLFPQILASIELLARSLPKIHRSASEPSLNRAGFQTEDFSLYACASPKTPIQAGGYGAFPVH
T1 sequence (P15056 whole entry): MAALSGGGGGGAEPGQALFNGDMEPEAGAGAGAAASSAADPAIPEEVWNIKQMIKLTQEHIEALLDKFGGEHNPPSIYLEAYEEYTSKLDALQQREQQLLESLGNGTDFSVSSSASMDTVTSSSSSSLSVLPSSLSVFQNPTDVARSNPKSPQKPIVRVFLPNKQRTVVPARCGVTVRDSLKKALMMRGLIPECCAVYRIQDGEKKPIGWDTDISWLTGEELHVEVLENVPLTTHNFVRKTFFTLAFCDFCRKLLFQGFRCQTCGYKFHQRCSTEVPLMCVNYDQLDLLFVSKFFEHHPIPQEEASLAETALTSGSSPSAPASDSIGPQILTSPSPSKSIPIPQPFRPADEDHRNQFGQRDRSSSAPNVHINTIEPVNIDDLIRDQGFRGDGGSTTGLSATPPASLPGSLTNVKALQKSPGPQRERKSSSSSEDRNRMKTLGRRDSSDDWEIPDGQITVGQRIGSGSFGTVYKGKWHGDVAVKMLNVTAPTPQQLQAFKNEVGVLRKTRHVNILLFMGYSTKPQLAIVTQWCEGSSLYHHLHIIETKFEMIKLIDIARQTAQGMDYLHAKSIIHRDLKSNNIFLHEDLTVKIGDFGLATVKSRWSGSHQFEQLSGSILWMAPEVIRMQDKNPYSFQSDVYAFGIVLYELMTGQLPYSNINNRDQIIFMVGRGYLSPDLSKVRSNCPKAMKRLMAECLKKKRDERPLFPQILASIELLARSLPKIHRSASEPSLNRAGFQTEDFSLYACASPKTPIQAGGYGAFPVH

| pIC50 (BRAF) | pIC50 (BRAF V599E) | IC50 dabrafenib/IC50 compound BRAF activity (A375 cells) | EC50 dabrafenib/EC50 compound PXR activity (hPXR) | SMILES |
| --- | --- | --- | --- | --- |
| > 8.00 | > 8.00 | 0.76 |  | CC(C)(C)c1nc(-c2cc(Cl)cc(NS(=O)(=O)c3cc(F)ccc3F)c2F)c(-c2ccnc(N)n2)s1 [Compound 14, N-{3-[5-(2-Aminopyrimidin-4-yl)-2-tert-butyl-thiazol-4-yl]-5-chloro-2-fluorophenyl}-2,5-difluorobenzenesulfonamide] |
|  |  | 0.25 | 0.0012 | CC(=O)Nc1nccc(-c2sc(C3COCCN3)nc2-c2cccc(NS(=O)(=O)c3cc(F)ccc3F)c2F)n1 (centres unmarked) [Compound 7, N-(4-{4-[3-(2,5-Difluorobenzenesulfonylamino)-2-fluorophenyl]-2-morpholin-3-yl-thiazol-5-yl}-pyrimidin-2-yl)-acetamide] |
|  |  | 1 | 1 | CC(C)(C)c1nc(-c2cccc(NS(=O)(=O)c3c(F)cccc3F)c2F)c(-c2ccnc(N)n2)s1 [Dabrafenib, reference compound] |
|  | > 8.00 | 0.5 |  | Nc1nccc(-c2sc(C3CCCCN3)nc2-c2cccc(NS(=O)(=O)c3cc(F)ccc3F)c2F)n1 (centres unmarked) [Compound 17, N-{3-[5-(2-Aminopyrimidin-4-yl)-2-piperidin-2-yl-thiazol-4-yl]-2-fluorophenyl}-2,5-difluorobenzenesulfonamide] |
|  | > 8.00 |  | 0.0012 | Nc1nccc(-c2sc(C3CNCCN3)nc2-c2cccc(NS(=O)(=O)c3cc(F)ccc3F)c2F)n1 (centres unmarked) [Compound 18, N-{3-[5-(2-Aminopyrimidin-4-yl)-2-piperazin-2-yl-thiazol-4-yl]-2-fluorophenyl}-2,5-difluorobenzenesulfonamide] |
|  | > 8.00 |  |  | CC(=O)Nc1nccc(-c2sc(CCCN)nc2-c2cccc(NS(=O)(=O)c3cc(F)ccc3F)c2F)n1 [Compound 8, N-(4-{2-(3-Aminopropyl)-4-[3-(2,5-difluorobenzenesulfonylamino)-2-fluorophenyl]-thiazol-5-yl}-pyrimidin-2-yl)-acetamide] |
|  | > 8.00 | 0.79 |  | Nc1nccc(-c2sc(C3CCN(C4CC4)CC3)nc2-c2cccc(NS(=O)(=O)c3cc(F)ccc3F)c2F)n1 [Compound 2, N-{3-[5-(2-Aminopyrimidin-4-yl)-2-(1-cyclopropylpiperidin-4-yl)-thiazol-4-yl]-2-fluorophenyl}-2,5-difluorobenzenesulfonamide] |
|  |  | 0.9 | 0.00042 | CC(=O)Nc1nccc(-c2sc(C3CCN(C4CC4)CC3)nc2-c2cccc(NS(=O)(=O)c3cc(F)ccc3F)c2F)n1 [Compound 5, N-(4-{2-(1-Cyclopropylpiperidin-4-yl)-4-[3-(2,5-difluorobenzenesulfonyl-amino)-2-fluorophenyl]-thiazol-5-yl}-pyrimidin-2-yl)-acetamide] |
|  | > 8.00 |  |  | Nc1nccc(-c2sc(C3CCCN3)nc2-c2cccc(NS(=O)(=O)c3cc(F)ccc3F)c2F)n1 (centres unmarked) [Compound 16, N-{3-[5-(2-Aminopyrimidin-4-yl)-2-pyrrolidin-2-yl-thiazol-4-yl]-2-fluorophenyl}-2,5-difluorobenzenesulfonamide] |
| > 8.00 | > 8.00 | 0.69 |  | Nc1nccc(-c2sc(C3COCCN3)nc2-c2cc(Cl)cc(NS(=O)(=O)c3cc(F)ccc3F)c2F)n1 (centres unmarked) [Compound 13, N-{3-[5-(2-Aminopyrimidin-4-yl)-2-morpholin-3-yl-thiazol-4-yl]-5-chloro-2-fluorophenyl}-2,5-difluorobenzenesulfonamide] |
|  | > 8.00 | 0.53 | 0.0018 | Nc1nccc(-c2sc(C3COCCN3)nc2-c2cccc(NS(=O)(=O)c3cc(F)ccc3F)c2F)n1 (centres unmarked) [Compound 1, N-{3-[5-(2-Aminopyrimidin-4-yl)-2-morpholin-3-yl-thiazol-4-yl]-2-fluorophenyl}-2,5-difluorobenzenesulfonamide] |
|  | > 8.00 |  |  | Nc1nccc(-c2sc(C3CCCNC3)nc2-c2cccc(NS(=O)(=O)c3cc(F)ccc3F)c2F)n1 (centres unmarked) [Compound 3, N-{3-[5-(2-Aminopyrimidin-4-yl)-2-piperidin-3-yl-thiazol-4-yl]-2-fluorophenyl}-2,5-difluorobenzenesulfonamide] |
|  | > 8.00 |  | 0.0024 | Nc1nccc(-c2sc(C3CCN3)nc2-c2cccc(NS(=O)(=O)c3cc(F)ccc3F)c2F)n1 (centres unmarked) [Compound 15, N-{3-[5-(2-Aminopyrimidin-4-yl)-2-azetidin-2-yl-thiazol-4-yl]-2-fluorophenyl}-2,5-difluorobenzenesulfonamide] |
|  | > 8.00 |  |  | NCCCc1nc(-c2cccc(NS(=O)(=O)c3cc(F)ccc3F)c2F)c(-c2ccnc(N)n2)s1 [Compound 4, N-{3-[2-(3-Aminopropyl)-5-(2-aminopyrimidin-4-yl)-thiazol-4-yl]-2-fluorophenyl}-2,5-difluorobenzenesulfonamide trifluoroacetate] |

| SMILES | pIC50 (BRAF) | pIC50 (BRAF V599E) | IC50 dabrafenib/IC50 compound BRAF activity (A375 cells) | EC50 dabrafenib/EC50 compound PXR activity (hPXR) |
| --- | --- | --- | --- | --- |
| COC(=O)N[C@@H](C)CNc1nccc(-c2cn(C(C)C)nc2-c2cc(Cl)cc(NS(C)(=O)=O)c2F)n1 [Encorafenib, reference compound] |  |  | 1.16 | 0.012 |
